According to patent publication US11559538B2, “Substituted 1,2-oxaborolan-2-ols as PDE4 inhibitors” (Pfizer Inc., priority 2018, dated 2023):
pIC50: −log10 of the molar value. Where two headings read alike, the source gives them in different places.

Assays:
IL-4 = assay: Cytokine assay: IL-4 release from PHA-L stimulated human PBMCs; type: cell-based; settings: read-out: IL4 IC50
Procedure, shortened: (§1)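 HTRF read-out of cytokine in culture supernatants after 48 h. PBMCs (human, ~250,000/well) received compound (4-fold dilutions, 0.25% DMSO) 10 min before PHA-L at 3.5 μg/mL final. IC50 from four-parameter logistic curve.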

IFNγ = assay: Cytokine assay: IFNγ release from PHA-L stimulated human PBMCs; type: cell-based
Procedure, shortened: as §1

IL-13 = assay: Cytokine assay: IL-13 release from PHA-L stimulated human PBMCs; type: cell-based; settings: read-out: IL13 IC50
Procedure, shortened: as §1

[1] = target: PDE4B (aa 152-484, Uniprot ID Q07343) (Homo sapiens (Human), UniProt Q07343); assay: PDE4 SPA assay (scintillation proximity assay); type: biochemical; settings: read-out: PDE4B2 IC50
Sequence of PDE4B (aa 152-484, Uniprot ID Q07343) (Q07343 324-656): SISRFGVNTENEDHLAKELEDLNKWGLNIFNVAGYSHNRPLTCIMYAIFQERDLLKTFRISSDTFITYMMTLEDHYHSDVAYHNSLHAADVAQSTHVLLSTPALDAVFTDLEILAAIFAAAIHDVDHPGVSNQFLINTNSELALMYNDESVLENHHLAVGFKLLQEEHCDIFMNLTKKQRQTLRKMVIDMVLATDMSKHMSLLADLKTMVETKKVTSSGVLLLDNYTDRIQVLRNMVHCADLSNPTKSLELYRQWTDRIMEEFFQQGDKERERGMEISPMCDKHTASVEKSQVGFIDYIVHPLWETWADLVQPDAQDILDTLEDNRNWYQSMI
Procedure, shortened: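 Scintillation proximity read-out after a 30 min room-temperature reaction of ~81.6 pM PDE4B catalytic fragment (aa 152-484) with 1 μM tritiated/unlabeled cAMP, pH 7.5 Tris buffer with MgCl2 and Brij 35. Compound given ~10 min beforehand, 4-fold dilutions, ~2% DMSO; IC50 from four-parameter logistic curve.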

Compound | pIC50 (IL-4; Homo sapiens, PBMC) | pIC50 (IFNγ; Homo sapiens, PBMC) | pIC50 (IL-13; Homo sapiens, PBMC) | pIC50 [1] | pIC50 (IL-4) | pIC50 (IFNγ) | pIC50 (IL-13)
CCCOc1c(OC)ccc(-c2cccc(C3=CB(O)OC3)c2)c1C#N [Example 43, 3′-(2-hydroxy-2,5-dihydro-1,2-oxaborol-4-yl)-4-methoxy-3-propoxy-[1,1′-biphenyl]-2-carbonitrile] | 6.63 | 7.12 | 5.00 | 8.08 |  |  | 
CCOc1cc(-c2cncc(C3COB(O)C3)c2)cc(F)c1OC (stereo not shown) [Example 44, 4-(5-(3-ethoxy-5-fluoro-4-methoxyphenyl)pyridin-3-yl)-1,2-oxaborolan-2-ol] | 8.14 | 8.87 | 6.78 | 8.60 |  |  | 
CCOc1cc(-c2cncc(C3COB(O)C3)c2)c(F)cc1OC (stereo not shown) [Example 46, 4-(5-(5-ethoxy-2-fluoro-4-methoxyphenyl)pyridin-3-yl)-1,2-oxaborolan-2-ol] | 7.93 | 8.42 | 6.50 | 8.46 |  |  | 
CCOc1cc(-c2cncc(C3COB(O)C3)c2)c(Cl)cc1OC (stereo not shown) [Example 47, 4-(5-(2-chloro-5-ethoxy-4-methoxyphenyl)pyridin-3-yl)-1,2-oxaborolan-2-ol] | 8.39 | 8.81 | 6.84 | 8.52 |  |  | 
CCOc1cc(-c2cc(C3COB(O)C3)cnc2C)ccc1OC (stereo not shown) [Example 52, 4-(5-(3-ethoxy-4-methoxyphenyl)-6-methylpyridin-3-yl)-1,2-oxaborolan-2-ol] | 7.84 | 8.24 | 5.58 | 8.03 |  |  | 
CCCOc1cc(-c2nc(C)cc(C3COB(O)C3)n2)ccc1OC (stereo not shown) [Example 54, 4-(2-(4-methoxy-3-propoxyphenyl)-6-methylpyrimidin-4-yl)-1,2-oxaborolan-2-ol] | 8.25 | 8.38 | 5.83 | 8.11 |  |  | 
CCOc1cc(-c2cncc(C3COB(O)C3)n2)ccc1OC (stereo not shown) [Example 56, 4-(6-(3-ethoxy-4-methoxyphenyl)pyrazin-2-yl)-1,2-oxaborolan-2-ol] | 7.17 | 8.44 | 6.35 | 8.55 |  |  | 
CCCOc1cc(-c2nc(CO)cc(C3COB(O)C3)n2)ccc1OC (stereo not shown) [Example 57, 4-(6-(hydroxymethyl)-2-(4-methoxy-3-propoxyphenyl)pyrimidin-4-yl)-1,2-oxaborolan-2-ol] | 8.12 | 8.64 | 6.62 | 7.99 |  |  | 
CCOc1cc(-c2cncc(C3COB(O)C3)c2)c(C)cc1OC (stereo not shown) [Example 69, 4-(5-(5-ethoxy-4-methoxy-2-methylphenyl)pyridin-3-yl)-1,2-oxaborolan-2-ol] | 8.19 | 8.42 | 6.43 | 8.36 |  |  | 
COc1ccc(-c2cccc(C3COB(O)C3)c2)cc1OC(C)C (stereo not shown) [Example 75, 4-(3′-isopropoxy-4′-methoxy-[1,1′-biphenyl]-3-yl)-1,2-oxaborolan-2-ol] | 6.90 | 8.22 | 6.40 | 8.34 |  |  | 
CCCOc1cc(-c2nc(CO)cc(C3COB(O)C3)n2)ccc1OC (stereo not shown) [Example 76, 4-(6-(hydroxymethyl)-2-(4-methoxy-3-propoxyphenyl)pyrimidin-4-yl)-1,2-oxaborolan-2-ol] |  |  |  | 8.00 | 8.24 | 8.66 | 6.39

Compounds with a higher pIC50 [1], results first:

pIC50 (IL-4; Homo sapiens, PBMC) | pIC50 (IFNγ; Homo sapiens, PBMC) | pIC50 (IL-13; Homo sapiens, PBMC) | pIC50 [1] | pIC50 (IL-4) | pIC50 (IFNγ) | pIC50 (IL-13) | Compound
7.04 | 8.81 | 6.69 | 9.46 |  |  |  | CCCOc1c(OC)ccc(-c2cccc(C3COB(O)C3)c2)c1C#N (stereo not shown) [Example 42, 3′-(2-hydroxy-1,2-oxaborolan-4-yl)-4-methoxy-3-propoxy-[1,1′-biphenyl]-2-carbonitrile]
9.09 | 9.01 | 6.60 | 9.92 |  |  |  | CCCOc1nc(-c2cncc(C3COB(O)C3)c2)c(F)cc1OC (stereo not shown) [Example 48, 4-(3-fluoro-5-methoxy-6-propoxy-[2,3′-bipyridin]-5′-yl)-1,2-oxaborolan-2-ol]
8.43 | 8.79 | 6.47 | 8.90 |  |  |  | CCCOc1cc(-c2cncc(C3COB(O)C3)c2)cnc1OC (stereo not shown) [Example 51, 4-(6′-methoxy-5′-propoxy-[3,3′-bipyridin]-5-yl)-1,2-oxaborolan-2-ol]
8.31 | 9.22 | 6.94 | 8.85 |  |  |  | CCOc1cc(-c2cncc(C3COB(O)C3)c2C)ccc1OC (stereo not shown) [Example 53, 4-(5-(3-ethoxy-4-methoxyphenyl)-4-methylpyridin-3-yl)-1,2-oxaborolan-2-ol]
 |  |  | 8.66 | 8.40 | 8.64 | 6.24 | CCCOc1cc(-c2nc(C3COB(O)C3)cc(C(F)(F)F)n2)ccc1OC (stereo not shown) [Example 55, 4-(2-(4-methoxy-3-propoxyphenyl)-6-(trifluoromethyl)pyrimidin-4-yl)-1,2-oxaborolan-2-ol]
6.79 | 8.74 | 6.99 | 9.14 |  |  |  | CCOc1cc(-c2nc(C3COB(O)C3)cs2)ccc1OC (stereo not shown) [Example 58, 4-(2-(3-ethoxy-4-methoxyphenyl)thiazol-4-yl)-1,2-oxaborolan-2-ol]
8.69 | 9.28 | 6.51 | 9.47 |  |  |  | CCCOc1nc(-c2cncc(C3COB(O)C3)c2)ccc1OC (stereo not shown) [Example 60, 4-(5-methoxy-6-propoxy-[2,3′-bipyridin]-5′-yl)-1,2-oxaborolan-2-ol]
7.24 | 8.56 | 6.51 | 8.79 |  |  |  | COc1ccc(-c2cccc(C3COB(O)C3)c2)cc1OCCF (stereo not shown) [Example 63, 4-(3′-(2-fluoroethoxy)-4′-methoxy-[1,1′-biphenyl]-3-yl)-1,2-oxaborolan-2-ol]
8.31 | 8.82 | 6.43 | 9.33 |  |  |  | COc1ccc(-c2cncc(C3COB(O)C3)c2)cc1OC1CSC1 (stereo not shown) [Example 68, 4-(5-(4-methoxy-3-(thietan-3-yloxy)phenyl)pyridin-3-yl)-1,2-oxaborolan-2-ol]
6.99 | 8.21 | 6.43 | 9.07 |  |  |  | CCOc1cc(-c2nc(C3COB(O)C3)ns2)ccc1OC (stereo not shown) [Example 72, 4-(5-(3-ethoxy-4-methoxyphenyl)-1,2,4-thiadiazol-3-yl)-1,2-oxaborolan-2-ol]
7.30 | 8.78 | 6.42 | 8.66 |  |  |  | CCOc1c(OC)ccc(-c2cncc(C3COB(O)C3)c2)c1F (stereo not shown) [Example 73, 4-(5-(3-ethoxy-2-fluoro-4-methoxyphenyl)pyridin-3-yl)-1,2-oxaborolan-2-ol]
7.39 | 8.58 | 6.38 | 8.62 |  |  |  | CCOc1cc(-c2cccc(C3COB(O)C3)c2)ccc1OC (stereo not shown) [Example 77, 4-(3′-ethoxy-4′-methoxy-[1,1′-biphenyl]-3-yl)-1,2-oxaborolan-2-ol]
7.72 |  |  | 9.26 |  | 8.87 | 6.38 | COc1ccc(-c2cncc(C3COB(O)C3)c2)cc1OC1CCSC1 (stereo not shown) [Example 78, 4-(5-(4-methoxy-3-((tetrahydrothiophen-3-yl)oxy)phenyl)pyridin-3-yl)-1,2-oxaborolan-2-ol]
 |  |  | 8.86 | 7.88 | 9.09 | 6.13 | COc1ccc(-c2cncc(C3COB(O)C3)c2)cc1OC1CCSC1 (stereo not shown) [Example 79, 4-(5-(4-methoxy-3-((tetrahydrothiophen-3-yl)oxy)phenyl)pyridin-3-yl)-1,2-oxaborolan-2-ol]
